# Read-outs that look alike come from different tables or passages of the source. Where a SMILES comes first, the peptide text is derived from it. Bridges are numbered along the chain shown (N, C = ends). [ ]: non-standard residue; d: D form.
# Test system: ischemic reperfusion injury in mouse heart
# Assay type: in vivo, C57B1/6J mice
# Conditions: for myocardial infarction (infarct area / AAR): 4 h reperfusion, vehicle 16.5±1.2%
# Method: Acute GsMTx4-D treatment: All animal protocols in this study were approved by the Institutional Animal Care and Use Committee of the University at Buffalo-State University of New York. C57B1/6J mice were anesthetized with 80 mg/kg of sodium pentobarbital (Sigma, St. Louis, Mo.) via intraperitoneal injection (IP), intubated and ventilated with a respirator (Harvard apparatus, Holliston, Mass., USA) 17. Upon absence of a pedal reflex, surgery was performed under a stereomicroscope. Core body temperature was maintained at 37° C. with a heating pad. After a left lateral thoracotomy, the left anterior descending coronary artery (LAD) was occluded just underneath the left atrium for 20 min with an 8-0 nylon suture. […] A small piece of gauze was used to prevent arterial injury. After 20 min the ligature was removed and the tissue was reperfused for up to 4 h before euthanizing. Three different doses of GsMTx4-D (0.1, 1, 10 mg/kg), verapamil (0.4 mg/kg) or vehicle (saline 50 μL) were administered via tail vein injection 5 min before reperfusion (during induced ischemia). ECGs confirmed the hallmark ischemic ST segment elevation during coronary occlusion (AD Instruments, Colorado Springs, CO, USA). Each group included 5 independent experiments. At the conclusion of the study, mice were euthanized by IP injection of 270 mg/kg pentobarbital. GsMTx4-D pretreatment: To evaluate the effect of GsMTx4-D pretreatment, GsMTx4-D (50 mg/kg) or vehicle (saline 50 μL) were administered via IP injection once daily for 2 days prior to surgery. Ischemia was then elicited with the same 20 min coronary occlusion followed by 24 h reperfusion. Following reperfusion, the chest was closed in layers. A drop of lidocaine was put on the suture site and the mouse was slowly weaned off the ventilator when they resumed spontaneous breathing. The mouse was returned to its cage and kept warm and medicated for pain (buprenorphine). Each group included 5 independent experiments.
# To measure infarct size, hearts were harvested and excised for dual staining at the conclusion of reperfusion. The non-necrotic tissue in the ischemic region was stained red with 2,3,5- triphenyltetrazolium (TTC) and non-ischemic regions were stained blue with Evans blue. The hearts were fixed and sectioned into 1 mm slices, photographed with a Lexica MZ95 microscope and analyzed with NIH ImageJ software (http://imagej.nih.gov/ij/) 19. The infarct size was calculated as the ratio of the percentage of myocardial necrosis to the ischemic Area At Risk (AAR).
# To test whether GsMTx4-D protected the heart against reperfusion injury, we first tested three different doses of the peptide. The positive control was verapamil, a voltage-gated calcium channel inhibitor with established cardioprotective effects on IRI. C57B1/6 mice were subjected to 20 min occlusion of the LAD followed by 4 hours of reperfusion. Three different concentrations of GsMTx4-D (0.1, 1 and 10 mg/kg), verapamil (0.4 mg/kg), or vehicle (saline) were administered through tail vein injection 5 min before reperfusion. […] At the conclusion of reperfusion, the hearts were stained with TTC and Evans Blue (FIG. 2A). […] The verapamil group also had lower infarction size (14.0±0.4%), but the difference wasn't statistically significant. […] To evaluate whether pretreatment with GsMTx4-D could also protect the heart from I/R injury, GsMTx4-D (50 mg/kg) or vehicle (saline 50 μL) were administered daily via IP injection, for 2 days prior to I/R surgery. As before, ischemia was induced from 20 min LAD occlusion, but reperfusion was allowed to continue for 24 hrs. The chest was closed in layers, and animals were weaned off the ventilator when they resumed spontaneous breathing. […] The ratios of AAR to total myocardial area between the two groups were equal as determined by TTC and Evans Blue staining (FIG. 3A and B). […]
smiles,measurement,setting,value
"CC(C)C[C@H]1NC(=O)[C@H](NC(=O)CN)CSSC[C@H]2NC(=O)[C@H]3CSSC[C@H](C(=O)N[C@H](CC(N)=O)C(=O)N[C@H](Cc4ccccc4)C(=O)N[C@H](CO)C(=O)N[C@H](Cc4ccccc4)C(N)=O)NC(=O)[C@@H](CC(C)C)NC(=O)[C@@H](CCCCN)NC(=O)[C@@H](Cc4ccccc4)NC(=O)[C@@H](CC(C)C)NC(=O)[C@@H](CCCCN)NC(=O)[C@@H](CO)NC(=O)[C@@H](CSSC[C@@H](NC(=O)[C@@H](CCCCN)NC(=O)[C@@H](Cc4c[nH]c5ccccc45)NC(=O)[C@@H](Cc4c[nH]c5ccccc45)NC(=O)[C@@H](Cc4ccccc4)NC(=O)[C@@H](CCC(=O)O)NC1=O)C(=O)N[C@H](CC(N)=O)C(=O)N1CCC[C@@H]1C(=O)N[C@H](CC(N)=O)C(=O)N[C@H](CC(=O)O)C(=O)N[C@H](CC(=O)O)C(=O)N[C@H](CCCCN)C(=O)N3)NC(=O)[C@@H](CCCCN)NC(=O)[C@@H](CC(C)C)NC(=O)[C@@H](CCCCN)NC(=O)[C@H]1CCCN1C(=O)[C@@H](CCCNC(=N)N)NC2=O [GsMTx4-D] (H-G[dC][dL][dE][dF][dW][dW][dK][dC][dN][dP][dN][dD][dD][dK][dC][dC][dR][dP][dK][dL][dK][dC][dS][dK][dL][dF][dK][dL][dC][dN][dF][dS][dF]-NH2; disulfide 2-17, 9-23, 16-30 (inferred); N-terminus and C-terminus assumed)",myocardial infarction (infarct area / AAR),1.0 mg/kg tail vein 5 min before reperfusion,9.9±1.3%
same,myocardial infarction (infarct area / AAR),10 mg/kg tail vein 5 min before reperfusion,12.4±0.5%
same,side-effects from pretreatment,50 mg/kg IP daily for 2 days,did not detect any side-effects
same,infarction size (infarct area / AAR),"50 mg/kg IP daily for 2 days prior to surgery, 24 h reperfusion, vehicle 16.8±1.1%",10.5±0.7%
same,death or morbidity in acute I/R treatment,"0.1, 1 and 10 mg/kg tail vein injection",no death or morbidity observed
same,toxicity in the heart during these studies,acute IV and IP pretreatment I/R studies,no overt signs of toxicity
